Source: patent US7452887B2, “Quinoline- and isoquinoline-based compounds exhibiting ATP-utilizing enzyme inhibitory activity, and compositions, and uses thereof” (Amphora Discovery Corporation, priority 2004, dated 2008)

Experiments:
Assay in all cases: HTS ATP-utilizing enzyme assay, off-chip mobility-shift (Caliper HTS 250)
Assay type in all cases: biochemical
Conditions in all cases: test compound 10 μM, kinase listed = active (greater than six-sigma from the mean activity of inactive compounds)
FLT-3 = target: T1, FLT-3 (Homo sapiens, UniProt P36888)
T1 sequence (P36888 27-993): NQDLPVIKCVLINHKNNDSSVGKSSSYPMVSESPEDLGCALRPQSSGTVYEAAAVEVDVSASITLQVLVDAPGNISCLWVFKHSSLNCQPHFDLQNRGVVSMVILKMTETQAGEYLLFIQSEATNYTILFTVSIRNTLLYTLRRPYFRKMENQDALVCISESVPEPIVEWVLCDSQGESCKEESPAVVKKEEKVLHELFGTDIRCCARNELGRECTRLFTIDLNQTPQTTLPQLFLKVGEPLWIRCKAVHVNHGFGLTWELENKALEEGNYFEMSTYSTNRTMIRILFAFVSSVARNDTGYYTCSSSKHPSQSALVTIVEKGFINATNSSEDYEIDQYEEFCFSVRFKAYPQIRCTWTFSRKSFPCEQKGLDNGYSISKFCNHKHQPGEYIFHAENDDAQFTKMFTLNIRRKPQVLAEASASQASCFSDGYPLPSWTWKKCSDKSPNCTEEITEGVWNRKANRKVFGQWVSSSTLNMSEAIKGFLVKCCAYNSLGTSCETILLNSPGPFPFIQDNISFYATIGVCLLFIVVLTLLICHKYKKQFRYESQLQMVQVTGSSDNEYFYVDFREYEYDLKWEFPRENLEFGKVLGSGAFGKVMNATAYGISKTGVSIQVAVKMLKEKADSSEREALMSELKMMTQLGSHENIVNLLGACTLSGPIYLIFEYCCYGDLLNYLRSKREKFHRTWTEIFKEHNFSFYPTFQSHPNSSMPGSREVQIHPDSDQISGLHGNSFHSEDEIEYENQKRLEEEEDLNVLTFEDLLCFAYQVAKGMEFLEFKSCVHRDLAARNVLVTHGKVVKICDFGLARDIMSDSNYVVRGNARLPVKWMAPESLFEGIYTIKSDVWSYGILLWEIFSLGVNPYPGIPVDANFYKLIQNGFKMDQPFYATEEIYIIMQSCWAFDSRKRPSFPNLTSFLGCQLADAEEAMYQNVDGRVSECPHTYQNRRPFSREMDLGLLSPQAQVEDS
Summary of the method: (§1)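 Single-point screen, 10 μM compound; kinase + peptide substrate, HEPES pH 7.5/Triton X-100/BSA; 2.5 hrs, 20–22° C.; EDTA stop. Readout: substrate vs phosphoproduct ratio by off-chip mobility shift. Hits called at six-sigma limits.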

NEK2 = target: T2, NEK2 (Homo sapiens, UniProt P51955)
T2 sequence (P51955 1-445): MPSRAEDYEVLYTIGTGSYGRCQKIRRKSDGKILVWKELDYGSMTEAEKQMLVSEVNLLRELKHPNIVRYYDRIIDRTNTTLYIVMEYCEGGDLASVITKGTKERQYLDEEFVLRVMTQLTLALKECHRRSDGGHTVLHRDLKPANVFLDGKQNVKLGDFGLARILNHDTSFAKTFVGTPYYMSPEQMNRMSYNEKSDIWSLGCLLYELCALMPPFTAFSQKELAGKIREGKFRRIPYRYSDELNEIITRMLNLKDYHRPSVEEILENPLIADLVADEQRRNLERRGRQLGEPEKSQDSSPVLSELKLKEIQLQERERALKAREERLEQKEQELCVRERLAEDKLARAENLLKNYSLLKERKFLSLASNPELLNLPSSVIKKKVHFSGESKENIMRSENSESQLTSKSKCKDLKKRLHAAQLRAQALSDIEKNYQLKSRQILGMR
Summary of the method: as §1

KIT = KIT (Homo sapiens, UniProt P10721)
KIT, sequence (P10721 26-976): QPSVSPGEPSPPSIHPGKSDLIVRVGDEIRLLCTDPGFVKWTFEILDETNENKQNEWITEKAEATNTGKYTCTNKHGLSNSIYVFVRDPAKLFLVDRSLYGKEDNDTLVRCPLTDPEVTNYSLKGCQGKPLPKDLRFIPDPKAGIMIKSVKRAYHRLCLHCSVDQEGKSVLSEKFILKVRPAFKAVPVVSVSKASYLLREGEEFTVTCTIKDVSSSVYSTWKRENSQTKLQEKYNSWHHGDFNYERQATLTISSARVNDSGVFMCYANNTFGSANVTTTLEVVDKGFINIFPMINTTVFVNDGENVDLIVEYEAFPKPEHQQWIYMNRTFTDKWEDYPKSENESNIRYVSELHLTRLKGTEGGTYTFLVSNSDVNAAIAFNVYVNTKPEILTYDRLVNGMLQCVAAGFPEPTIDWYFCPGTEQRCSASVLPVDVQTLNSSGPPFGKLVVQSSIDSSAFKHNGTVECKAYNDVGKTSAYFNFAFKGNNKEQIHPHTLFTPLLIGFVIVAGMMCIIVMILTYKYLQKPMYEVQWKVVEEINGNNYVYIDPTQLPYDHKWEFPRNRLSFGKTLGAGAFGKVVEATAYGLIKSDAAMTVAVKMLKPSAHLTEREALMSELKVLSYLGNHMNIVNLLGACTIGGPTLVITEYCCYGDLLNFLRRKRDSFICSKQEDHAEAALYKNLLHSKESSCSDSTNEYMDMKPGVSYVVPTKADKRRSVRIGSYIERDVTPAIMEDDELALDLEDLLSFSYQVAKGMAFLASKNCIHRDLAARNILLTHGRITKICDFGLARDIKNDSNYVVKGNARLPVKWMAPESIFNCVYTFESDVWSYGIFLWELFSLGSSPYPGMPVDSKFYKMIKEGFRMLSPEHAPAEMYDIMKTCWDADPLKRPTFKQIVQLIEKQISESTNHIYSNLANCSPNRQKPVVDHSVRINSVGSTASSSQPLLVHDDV
Summary of the method: as §1

Compound | Activity (FLT-3) | Activity (NEK2) | Activity (KIT)
CN1CCN(c2ccc(Nc3ccnc4ccc(-c5ccc(O)cc5)cc34)cc2)CC1 [4-(4-(4-(4-methylpiperazin-1-yl)phenylamino)quinolin-6-yl)phenol] | FLT-3 |  | 
CN1CCN(c2ccc(Nc3ccnc4ccc(-c5ccc(F)cc5)cc34)cc2)CC1 [6-(4-fluorophenyl)-N-(4-(4-methylpiperazin-1-yl)phenyl)quinolin-4-amine] |  | NEK2 | 
COc1ccc(-c2ccc3nccc(Nc4ccc(N5CCNCC5)cc4)c3c2)cc1 [6-(4-methoxyphenyl)-N-(4-(piperazin-1-yl)phenyl)quinolin-4-amine] | FLT-3 |  | KIT
COc1ccc(-c2ccc3nccc(N(C)c4ccc(N5CCN(C)CC5)cc4)c3c2)cc1 [6-(4-methoxyphenyl)-N-methyl-N-(4-(4-methylpiperazin-1-yl)phenyl)quinolin-4-amine] | FLT-3 |  | KIT
c1ccc(-c2ccc3nccc(Nc4ccc(N5CCNCC5)cc4)c3c2)cc1 [6-phenyl-N-(4-(piperazin-1-yl)phenyl)quinolin-4-amine] | FLT-3 |  | KIT
CN1CCN(c2ccc(Nc3ccnc4ccc(-c5cccc6ccccc56)cc34)cc2)CC1 [N-(4-(4-methylpiperazin-1-yl)phenyl)-6-(naphthalen-1-yl)quinolin-4-amine] |  | NEK2 | KIT

The remaining lines, values ahead:

Activity (FLT-3) | Activity (NEK2) | Activity (KIT) | Compound
 | NEK2 |  | CN1CCN(c2ccc(Nc3ccnc4ccc(-c5ccc6ccccc6c5)cc34)cc2)CC1 [N-(4-(4-methylpiperazin-1-yl)phenyl)-6-(naphthalen-2-yl)quinolin-4-amine]
FLT-3 | NEK2 | KIT | CN1CCN(c2ccc(Nc3ccnc4ccc(-c5ccncc5)cc34)cc2)CC1 [N-(4-(4-methylpiperazin-1-yl)phenyl)-6-(pyridin-4-yl)quinolin-4-amine]
 | NEK2 |  | Cc1ccccc1-c1ccc2nccc(Nc3ccc(N4CCN(C)CC4)cc3)c2c1 [N-(4-(4-methylpiperazin-1-yl)phenyl)-6-o-tolylquinolin-4-amine]
